One test relates to pAMPK, pACC and pP38. Kind of test: AMPK, ACC and p38 phosphorylation by western blot in C2C12 myotubes. Type of test: cell-based, mouse. To be noted: 10 nM. How it is done:
A. ULMA induces rapid AMPK and p38MAPK signaling. C2C12 myotubes in 10 cm dishes were treated with vehicle (0.1% vol/vol DMSO; 0 min) or 10 nM ULMA for different time points ranging from 1 min to 24 h (final concentration of DMSO in all wells were 0.1% vol/vol). Following treatment, the cells were washed with ice-cold PBS and then lysed. The total protein was estimated by Bradford assay and equal amount of protein (50 μg) was resolved by denaturing polyacrylamide gel electrophoresis and western blotted to determine pAMPK, pACC and pP38 level. Total AMPK, total ACC or total P38 levels were used as loading controls. Data is representative of three independent experiments displaying identical pattern (right panel depicts densitometry from 3 experiments).
B. AdipoR1 overexpression enhances ULMA effect on AMPK and p38 MAPK signaling. C2C12 myoblasts growing in T75 flasks were trypsinized and transfected with […] of either empty vector (pcDNA3) or AdipoR1 expression plasmid using lipofectamine LTX transfection reagent and then the cells were plated in 10 cm dishes. 24 h following transfection, cells were incubated in differentiation medium and maintained in the same medium for 96 h when the cells differentiated fully into myotubes. These cells were then treated with vehicle (DMSO) or ULMA (10 nM) for 10 mins. The cells were then lysed and western blotted for the indicated proteins. Data is representative of three independent experiments displaying identical pattern.
C. Knockdown of AdipoR1 abrogates ULMA effect on AMPK and p38 signalling. C2C12 myotubes in 6 well plates were transfected with 100 nM non-silencing control or AdipoR1 siRNAs using DharmaFECT 1 transfection reagent (Thermo). 72 h following transfection, cells were treated with vehicle (DMSO) or ULMA (10 nM) for 10 min and were western blotted to evaluate pAMPK, pACC, p38, AdipoR1, and R2 status. Total AMPK, ACC, p38 and beta-actin were used as loading controls.
C2C12 myotubes in 10 cm dishes were treated with vehicle (0.1% DMSO; 0 min) or 10 nM ULMA for different time points ranging from 1 min to 24 hour. Following treatment, the cells were washed with ice-cold PBS and then lysed in lysis buffer [1M NaCl, 50 mM HEPES and 0.1% triton X 100 containing 1× protease inhibitor cocktail and 1× phosphates inhibitor cocktail (Sigma)]. The total protein was estimated by Bradford assay and equal amount of protein (50 μg) was resolved by denaturing polyacrylamide gel electrophoresis and western blotted for determination of pAMPK, pACC and pP38 levels (in all the cases the primary antibodies were used in 1:1000 dilution and all the antibodies were from Cell signaling technology). Total AMPK, ACC and p38 expressions were also detected and used as loading controls (all the antibodies were from Cell signaling technology and were used in 1:1000 dilution). […] To evaluate if AdipoRs are indeed involved in the regulation of these pathways by ULMA, C2C12 myoblasts growing in T75 flasks were trypsinized and transfected with 10 μg of either empty vector (pcDNA3) or AdipoR1 expression plasmid using lipofectamine LTX transfection reagent and then the cells were plated in 10 cm dishes. 24 hours following transfection, cells were incubated in differentiation medium and were maintained in the same medium for 96 hours when the cells fully differentiated into myotubes. These cells were then treated with vehicle (DMSO) or ULMA (10 nM) for 10 min. The cells were then lysed (as mentioned above) and western blotted. […] This was further validated in knockdown experiments where C2C12 myotubes in 6 well plates were transfected with 100 nM non-silencing control or AdipoR1 siRNAs using DharmaFECT 1 transfection reagent (Thermo). 72 hours following transfection, cells were treated with vehicle (DMSO) or ULMA (10 nM) for 10 min and were western blotted to evaluate pAMPK, pACC, pP38, AdipoR1, and R2 status.
For orientation: Immunoblotting shows a protein as a band on a membrane.

A further test concerns db/db mice. The experiment in a line: Random (fed) blood glucose in db/db mice. It counts as in vivo, mouse. As to conditions: 5 mg/kg ULMA for 15 d. How it is done:
8 week old db/db mice were treated with vehicle (V; 1% gum acacia) or with 5 mg/kg ULMA for 15 days and the fed blood glucose was measured by a glucometer (Gluco Dr. Super sensor; that is capable of measuring 10-900 mg/dl glucose) ** p<0.01, ***p<0.005, n=6.
8 week old female db/db mice (n=6) weighing 40-50 g were divided into 2 groups and maintained as above. Control groups received vehicle (1% gum acacia) and ULMA groups received 5 mg/kg bw ULMA in 1% gum acacia for […]. Body weight and blood glucose were measured at the beginning and end of the studies.

For `O=C1c2c(cc(O)c([C@@H]3O[C@H](CO)[C@@H](O)[C@H](O)[C@H]3O)c2O)O[C@@H](c2ccc(O)c(O)c2)[C@@H]1O` [ULMA, (2S,3S)-(+)-3′,4′,5,7-tetrahydroxydihydroflavonol-6-C-β-D-glucopyranoside], in the test on pAMPK, pACC and pP38 (1 min to 24 hour), the “phosphorylation of ACC” value was “rapid and robust phosphorylation”; the “phosphorylation of AMPK” value is “rapid and robust phosphorylation”; the “phosphorylation of p38” value is “phosphorylated”. Besides, the “response on AMPK, ACC and p38 phosphorylation with siAdipoR1” value in the test with pAMPK, pACC and pP38 (10 min, 100 nM AdipoR1 siRNA) is “completely obliterated ULMA response”. Also, the “effect on AMPK and p38 MAPK signaling with AdipoR1 overexpression” value in the test with pAMPK, pACC and pP38 (10 min, AdipoR1 expression plasmid vs empty vector) is “robust increase in effect of ULMA”. In addition, in the test with pAMPK, pACC and pP38 (10 min, non-silencing control siRNA), the “AMPK, ACC and p38 phosphorylation with control siRNA (siC)” value was “phosphorylated AMPK, ACC and P38”. Also, in the test on db/db mice, the “fed blood glucose in comparison to vehicle treated control mice” value was “significantly reduced fed blood glucose”.
